Test results from PMC9106035, “Synthesis, X-ray Structure and Biological Studies of New Self-Assembled Cu(II) Complexes Derived from s-Triazine Schiff Base Ligand” (Molecules, 2022).
pIC50: −log10 of the molar value. In brackets after ≈: the same amount, converted by molar mass.

Assays:
[1] = test system: normal human lung fibroblast MRC-5 cells; test: Cytotoxic activity on normal cells, MTT viability assay; format: cell-based; conditions: Homo sapiens, MRC5, MRC-5, Table S12, read-out: Inhibitory %
Experimental: (§1) In this regard, the selectivity index (SI) was calculated as the ratio of cytotoxic effect on the normal cell line to the cytotoxic effect on the cancer cell line.
(§2) Method S4 Evaluation of Cytotoxic activity
(§3) The cells were propagated in Dulbecco’s modified Eagle’s medium (DMEM) supplemented with 10% heat-inactivated fetal bovine serum, 1 % L-glutamine, HEPES buffer and 50µg/mL Gentamycin. All cells were maintained at 37 °C in a humidified atmosphere with 5% CO2 and were subcultured tw o times a week.
(§4) Cytotoxicity evaluation using viability assay
(§5) For cytotoxicity assay, the cells were seeded in 96-well plate at a cell concentration of 1×10^4 cells per well in 100µl of growth medium. Fresh medium containing different concentrations of the test sample was added after 24 h of seeding. Serial two-fold dilutions of the tested chemical compound were added to confluent cell monolayers dispensed into 96-well, flat-bottomed microtiter plates (Falcon, NJ, USA) using a multichannel pipette. The microtiter plates were incubated at 37 °C in a humidified incubator with 5% CO2 for a period of 24 h. Three wells were used for each concentration of the test sample. Control cells were incubated without test sample and with or without DMSO. The little percentage of DMSO present in the […]
(§6) cells for at 37°C, for 24 h, the viabl e cells yield was determined by the MTT test.
(§7) Briefly, the media was removed from the 96 well plate and replaced with 100 µL of fresh culture DMEM m edium without phenol red then 10 µL of the 12 mM MTT stock solution (5 mg of MTT in 1 mL of PBS) to each well including the untreated controls. The 96 well plates were then incubated at 37°C and 5% CO2 for 4 hours. An 85 µL aliquot of the media was removed from t he wells, and 50 µL of DMSO was added to each well and mixed thoroughly with the pipette and incubated at 37°C for 10 min. Then, the optical density was measured at 590 nm with the microplate reader (SunRise, TECAN, Inc, USA) to determine the number of viable cells and the percentage of viability was calculat ed as [(ODt/ODc)]x100% where ODt i s the mean optical density of wells treated with the tested s ample and ODc is the mean optical density of untreated cells. The relation between surviving cells and drug concentration is plotted to get the survival curve of each tumor cell line after treatment with the specified compound. The 50% inhibitory concentration (IC50), the concentration required to cause t oxic effects in 50% of intact cells, was estimated from graphic plots of the dose response curve for each conc. using Graphpad Prism software (San Diego, […]

[2] = as above; format: cell-based, human; conditions: human, MRC-5 normal lung fibroblast cells
Experimental: as §1, §2, §3, §4, §5, §6, §7

[3] = DPPH radical scavenging assay; format: biochemical
Experimental: The studied Cu(II) complexes and the free ligands were assessed for their antioxidant activity levels using an α,α-diphenyl-β-picrylhydrazyl (DPPH) scavenging assay, and the results are given in Table 7. […] The results indicated better antioxidant activity for DMAT than for DMOHT, indicating the effect of the substituent at the phenyl moiety on the antioxidant activity level of the free ligand. […] On the other hand, the Cu(II) complexes have improved levels of antioxidant activity compared to the free ligands.
Method S3 DPPH Radical Scavenging Activity:
Freshly prepared (0.004 %w/v) methanol solution of 2,2-diphenyl-1-pi crylhydrazyl (DPPH) radical was prepared and stored at 10 °C in dark place. A methanolic solution of the test compound was prepared using the same procedure. A 40 uL aliquot of the methanol solution was added to 3mL of DPPH solution. Absorbance measurements were recorded immediately with a UV-visible spectrophotometer (Milton Roy, Spectronic 1201). The decrease in absorbance at 515 nm was determined continuously, with data being recorded at 1 min intervals until the absorbance stabilized (16 min). The absorbance of the DPPH radical without antioxidant (control) and the reference compound ascorbic acid were also measured.
All the determinations were performed in three replicates and averaged. The percentage inhibition (PI) of the DPPH radical was calculated according to the […]
PI = [{(AC- AT)/ AC} x 100] (1)
Where AC = Absorbance of the control at t = 0 min and AT = absorbance of the sample+DPPH at t = 16 min. The 50% inhibitory concentration (IC50), the concentration required t o inhibit DPPH radical by 50%, was estimated from graphic plots of the dose respons e curve.

[4] = test system: lung carcinoma A-549 cell line; test: Anticancer activity, MTT viability assay; format: cell-based
Experimental: The studied compounds were examined for their anticancer activity against the lung carcinoma A-549 cell line.
as §2, §3, §4, §5, §6, §7

CC(=NNc1nc(N2CCOCC2)nc(N2CCOCC2)n1)c1ccccc1O [DMOHT, 2-(1-(2-(4,6-dimorpholino-1,3,5-triazin-2-yl)hydrazono)ethyl)phenol]
inhibition at 2.5 µM ([1]; sample conc. 2.5 µM): 0%
inhibition at 5 µM ([1]; sample conc. 5.0 µM): 0%
inhibition at 9.8 µM ([1]; sample conc. 9.8 µM): 0%
inhibition at 19.5 µM ([1]; sample conc. 19.5 µM): 0%
inhibition at 39.1 µM ([1]; sample conc. 39.1 µM): 0%
inhibition at 78.2 µM ([1]; sample conc. 78.2 µM): 0%
inhibition at 156.5 µM ([1]; sample conc. 156.5 µM): 2.14%
inhibition at 312.9 µM ([1]; sample conc. 312.9 µM): 10.4%
inhibition at 625.8 µM ([1]; sample conc. 625.8 µM): 32.4%
inhibition at 1251.7 µM ([1]; sample conc. 1251.7 µM): 61.8%
viability at 24 h, 2.5 µM ([2]; MRC-5, sample conc. 2.5 µM, Table S12): 100%
viability at 24 h, 5 µM ([2]; MRC-5, sample conc. 5.0 µM, Table S12): 100%
viability at 24 h, 9.8 µM ([2]; MRC-5, sample conc. 9.8 µM, Table S12): 100%
viability at 24 h, 19.5 µM ([2]; MRC-5, sample conc. 19.5 µM, Table S12): 100%
viability at 24 h, 39.1 µM ([2]; MRC-5, sample conc. 39.1 µM, Table S12): 100%
viability at 24 h, 78.2 µM ([2]; MRC-5, sample conc. 78.2 µM, Table S12): 100%
viability at 24 h, 156.5 µM ([2]; MRC-5, sample conc. 156.5 µM, Table S12): 97.9%
viability at 24 h, 312.9 µM ([2]; MRC-5, sample conc. 312.9 µM, Table S12): 89.6%
viability at 24 h, 625.8 µM ([2]; MRC-5, sample conc. 625.8 µM, Table S12): 67.6%
viability at 24 h, 1251.7 µM ([2]; MRC-5, sample conc. 1251.7 µM, Table S12): 38.2%
CC50 at 24 h ([2]; MRC-5 cells, 24 h, MTT): 1000 µM
DPPH Scavenging % ([3]; Conc. 2.5 μg/mL): 5.73%
DPPH Scavenging % ([3]; Conc. 5 μg/mL): 10.48%
DPPH Scavenging % ([3]; Conc. 10 μg/mL): 19.87%
DPPH Scavenging % ([3]; Conc. 20 μg/mL): 31.95%
DPPH Scavenging % ([3]; Conc. 40 μg/mL): 47.09%
DPPH Scavenging % ([3]; Conc. 80 μg/mL): 61.32%
DPPH Scavenging % ([3]; Conc. 160 μg/mL): 73.64%
DPPH Scavenging % ([3]; Conc. 320 μg/mL): 84.93%
DPPH Scavenging % ([3]; Conc. 640 μg/mL): 88.54%
DPPH Scavenging % ([3]; Conc. 1280 μg/mL): 93.87%
IC50 (DPPH scavenging) ([3]; antioxidant activity): 48.2 ± 1.08 µg/mL (≈ 121 µM)
SI = CC50/IC50 ([4]; CC50 (MRC-5) / IC50 (A-549)): 1.77
viability at 2.5 µM ([4]; Homo sapiens, A549, A-549, sample conc. 2.5 µM, Table S7): 100%
inhibition at 2.5 µM ([4]; Homo sapiens, A549, A-549, sample conc. 2.5 µM, Table S7, read-out: Inhibitory %): 0%
viability at 5 µM ([4]; Homo sapiens, A549, A-549, sample conc. 5.0 µM, Table S7): 100%
inhibition at 5 µM ([4]; Homo sapiens, A549, A-549, sample conc. 5.0 µM, Table S7, read-out: Inhibitory %): 0%
viability at 9.8 µM ([4]; Homo sapiens, A549, A-549, sample conc. 9.8 µM, Table S7): 100%
inhibition at 9.8 µM ([4]; Homo sapiens, A549, A-549, sample conc. 9.8 µM, Table S7, read-out: Inhibitory %): 0%
viability at 19.5 µM ([4]; Homo sapiens, A549, A-549, sample conc. 19.5 µM, Table S7): 100%
inhibition at 19.5 µM ([4]; Homo sapiens, A549, A-549, sample conc. 19.5 µM, Table S7, read-out: Inhibitory %): 0%
viability at 39.1 µM ([4]; Homo sapiens, A549, A-549, sample conc. 39.1 µM, Table S7): 100%
inhibition at 39.1 µM ([4]; Homo sapiens, A549, A-549, sample conc. 39.1 µM, Table S7, read-out: Inhibitory %): 0%
viability at 78.2 µM ([4]; Homo sapiens, A549, A-549, sample conc. 78.2 µM, Table S7): 98.2%
inhibition at 78.2 µM ([4]; Homo sapiens, A549, A-549, sample conc. 78.2 µM, Table S7, read-out: Inhibitory %): 1.75%
viability at 156.5 µM ([4]; Homo sapiens, A549, A-549, sample conc. 156.5 µM, Table S7): 90.7%
inhibition at 156.5 µM ([4]; Homo sapiens, A549, A-549, sample conc. 156.5 µM, Table S7, read-out: Inhibitory %): 9.33%
viability at 312.9 µM ([4]; Homo sapiens, A549, A-549, sample conc. 312.9 µM, Table S7): 75.1%
inhibition at 312.9 µM ([4]; Homo sapiens, A549, A-549, sample conc. 312.9 µM, Table S7, read-out: Inhibitory %): 24.9%
viability at 625.8 µM ([4]; Homo sapiens, A549, A-549, sample conc. 625.8 µM, Table S7): 43.9%
inhibition at 625.8 µM ([4]; Homo sapiens, A549, A-549, sample conc. 625.8 µM, Table S7, read-out: Inhibitory %): 56.1%
viability at 1251.7 µM ([4]; Homo sapiens, A549, A-549, sample conc. 1251.7 µM, Table S7): 21.5%
inhibition at 1251.7 µM ([4]; Homo sapiens, A549, A-549, sample conc. 1251.7 µM, Table S7, read-out: Inhibitory %): 78.5%
pIC50 ([4]; Homo sapiens, A549, A-549 cells, 24 h, MTT): 3.25
